Measured values: patent publication US20210401826A1, “ABUSE DETERRENT PHARMACEUTICAL FORMULATIONS” (AVEKSHAN, LLC., priority 2018, published 2021)
“And” between values parts separate entries of the source, which are not always exact repeats. Identical values can stand only once. Counter-ions that a name gives are not always drawn. Like-named read-outs stand apart in the source and are kept apart here.

What was measured:
[1] = Solubility study of naltrexone and methylphenidate in common solvents and household items (visual examination); assay type: physicochemical
Experimental: The solubility of naltrexone and methylphenidate was evaluated in various commonly available solvents and household items, including water, cola soft drinks, ethanol, vinegar, nail polish remover, toluene, turpentine, and baking soda solution (see Table 1). The solubility results were determined by visual examination of each solution after warming and several hours of mixing. The solubility results are presented below in Table 1.

[2] = Separation of naltrexone and methylphenidate from a 1:1 mixture using acetone; assay type: physicochemical; conditions: for mg NTX / MPH Recovered / % NTX / MPH Recovered / NTX / MPH: Prep. A and B
Experimental: In this example, equal amounts of methylphenidate and naltrexone (20 mg each) were combined and then separated. To separate the methylphenidate from the naltrexone, only materials representing commonly available household items were used, e.g., acetone (nail polish remover), water, small glass containers, a hot plate and a coffee filter. Three sources of acetone were used, all of which are available to the public, including lab grade acetone, nail polish remover, and acetone heavy-duty cleaner.
Conditions for the separation, such as acetone volume and extraction time, were tested and adjusted.

[3] = 0.2% baking soda solution, aqueous buffer, thermodynamic from solid, read-out: Solubility
[4] = 25:75 acetone:water, aqueous with cosolvent or surfactant or cyclodextrin, thermodynamic from solid, 25:75 Acetone:H2O, read-out: Solubility
[5] = 40% ethanol, aqueous with cosolvent or surfactant or cyclodextrin, thermodynamic from solid, read-out: Solubility
[6] = 50:50 acetone:water, aqueous with cosolvent or surfactant or cyclodextrin, thermodynamic from solid, 50:50 Acetone:H2O, read-out: Solubility
[7] = Coca-Cola, aqueous buffer, thermodynamic from solid, read-out: Solubility
[8] = DMF, organic solvent or mixture, thermodynamic from solid, read-out: Solubility
[9] = DMSO, organic solvent or mixture, thermodynamic from solid, read-out: Solubility
[10] = acetone, organic solvent or mixture, thermodynamic from solid, read-out: Solubility
[11] = acetonitrile, organic solvent or mixture, thermodynamic from solid, read-out: Solubility
[12] = aqueous buffer, thermodynamic from solid, 0.1M Sodium Hydroxide, read-out: Solubility
[13] = canola oil, oil or lipid, thermodynamic from solid, read-out: Solubility
[14] = ethanol, organic solvent or mixture, thermodynamic from solid, read-out: Solubility
[15] = ethyl acetate, organic solvent or mixture, thermodynamic from solid, read-out: Solubility
[16] = hexanes, organic solvent or mixture, thermodynamic from solid, read-out: Solubility
[17] = isopropyl alcohol, organic solvent or mixture, thermodynamic from solid, read-out: Solubility
[18] = methanol, organic solvent or mixture, thermodynamic from solid, read-out: Solubility
[19] = methyl ethyl ketone, organic solvent or mixture, thermodynamic from solid, read-out: Solubility
[20] = mineral spirits, organic solvent or mixture, thermodynamic from solid, read-out: Solubility
[21] = naphtha, organic solvent or mixture, thermodynamic from solid, read-out: Solubility
[22] = simulated gastric fluid, thermodynamic from solid, 0.1M Hydrochloric Acid, read-out: Solubility
[23] = toluene, organic solvent or mixture, thermodynamic from solid, read-out: Solubility
[24] = turpentine, organic solvent or mixture, thermodynamic from solid, read-out: Solubility
[25] = vinegar, aqueous buffer, thermodynamic from solid, read-out: Solubility
[26] = water, thermodynamic from solid, read-out: Solubility
[27] = xylene, organic solvent or mixture, thermodynamic from solid, read-out: Solubility
[28] = Acetone Cleaner 20 mL, listed as MPH, HCl
[29] = Lab Grade Acetone 20 mL, listed as MPH, HCl
[30] = Lab Grade Acetone 50 mL, listed as MPH, HCl
[31] = Nail Polish Remover 20 mL, listed as MPH, HCl
[32] = Nail Polish Remover 50 mL, listed as MPH, HCl
[33] = Acetone Cleaner 20 mL, listed as NTX, HCl
[34] = Acetone Cleaner 50 mL, listed as NTX, HCl
[35] = Lab Grade Acetone 20 mL, listed as NTX, HCl
[36] = Nail Polish Remover 20 mL, listed as NTX, HCl
[37] = Nail Polish Remover 50 mL, listed as NTX, HCl

COC(=O)C(c1ccccc1)C1CCCCN1 (stereo not drawn) [Methylphenidate HCl]
solubility [1, 3]: > 1000 µg/mL | solubility [1, 4]: > 1000 µg/mL | solubility [1, 5]: > 1000 µg/mL | solubility [1, 6]: > 1000 µg/mL | solubility ([1]; Acetone, HCl): >1000 µg/mL | solubility [1, 7]: > 1000 µg/mL | solubility [1, 8]: > 1000 µg/mL | solubility [1, 9]: > 1000 µg/mL | solubility [1, 10]: > 1000 µg/mL | solubility [1, 11]: > 1000 µg/mL | solubility [1, 12]: > 1000 µg/mL | solubility [1, 13]: < 100 µg/mL | solubility [1, 14]: > 1000 µg/mL | solubility [1, 15]: 100 to 500 µg/mL | solubility [1, 16]: 100 to 500 µg/mL | solubility [1, 17]: > 1000 µg/mL | solubility [1, 18]: > 1000 µg/mL | solubility [1, 19]: 500 to 1000 µg/mL | solubility [1, 20]: < 100 µg/mL | solubility [1, 21]: < 100 µg/mL | solubility [1, 22]: > 1000 µg/mL | solubility [1, 23]: < 100 µg/mL | solubility [1, 24]: < 100 µg/mL | solubility [1, 25]: > 1000 µg/mL | solubility [1, 26]: > 1000 µg/mL | solubility [1, 27]: < 100 µg/mL | mg NTX / MPH Recovered ([2]; Acetone Cleaner 20 mL): 15.9 mg | % NTX / MPH Recovered [2, 28]: 79.5% and 79.7% | NTX / MPH [2, 28]: 0.79 mg/mL and 0.80 mg/mL | NTX / MPH ([2]; Acetone Cleaner 50 mL): 0.92 mg/mL | mg NTX / MPH Recovered ([2]; Acetone Cleaner 50 mL): 18.4 mg | % NTX / MPH Recovered ([2]; Acetone Cleaner 50 mL, listed as MPH, HCl): 92.0% and 91.8% | % NTX / MPH Recovered [2, 29]: 76.4% and 73.7% | NTX / MPH [2, 29]: 0.76 mg/mL and 0.74 mg/mL | mg NTX / MPH Recovered [2, 29]: 15.3 mg and 14.7 mg | % NTX / MPH Recovered [2, 30]: 91.5% and 92.4% | NTX / MPH [2, 30]: 0.91 mg/mL and 0.92 mg/mL | mg NTX / MPH Recovered [2, 30]: 18.3 mg and 18.5 mg | mg NTX / MPH Recovered ([2]; Nail Polish Remover 20 mL): 14.6 mg | % NTX / MPH Recovered [2, 31]: 73.0% and 79.4% | NTX / MPH [2, 31]: 0.73 mg/mL and 0.79 mg/mL | mg NTX / MPH Recovered [2, 31]: 15.9 mg | NTX / MPH ([2]; Nail Polish Remover 50 mL, 20 mg each drug combined, listed as MPH, HCl): 0.91 mg/mL and 0.90 mg/mL | % NTX / MPH Recovered [2, 32]: 91.4% and 90.1% | mg NTX / MPH Recovered [2, 32]: 18.3 mg and 18.0 mg | % of methylphenidate extracted ([2]; depending on the volume of acetone used): 73-92%

O=C1CC[C@@]2(O)[C@H]3Cc4ccc(O)c5c4[C@@]2(CCN3CC2CC2)[C@H]1O5 [Naltrexone HCl]
solubility [1, 3]: > 1000 µg/mL | solubility [1, 4]: > 1000 µg/mL | solubility [1, 5]: > 1000 µg/mL | solubility [1, 6]: > 1000 µg/mL | solubility ([1]; Acetone, HCl): <100 µg/mL | solubility [1, 7]: > 1000 µg/mL | solubility [1, 8]: > 1000 µg/mL | solubility [1, 9]: > 1000 µg/mL | solubility [1, 10]: < 100 µg/mL | solubility [1, 11]: 100 to 500 µg/mL | solubility [1, 12]: > 1000 µg/mL | solubility [1, 13]: < 100 µg/mL | solubility [1, 14]: > 1000 µg/mL | solubility [1, 15]: < 100 µg/mL | solubility [1, 16]: < 100 µg/mL | solubility [1, 17]: < 100 µg/mL | solubility [1, 18]: > 1000 µg/mL | solubility [1, 19]: < 100 µg/mL | solubility [1, 20]: < 100 µg/mL | solubility [1, 21]: < 100 µg/mL | solubility [1, 22]: > 1000 µg/mL | solubility [1, 23]: < 100 µg/mL | solubility [1, 24]: < 100 µg/mL | solubility [1, 25]: > 1000 µg/mL | solubility [1, 26]: > 1000 µg/mL | solubility [1, 27]: < 100 µg/mL | % NTX / MPH Recovered [2, 33]: 5.1% and 8.5% | NTX / MPH [2, 33]: 0.05 mg/mL and 0.09 mg/mL | mg NTX / MPH Recovered [2, 33]: 1.02 mg and 1.7 mg | NTX / MPH ([2]; Acetone Cleaner 50 mL): 0.13 mg/mL | % NTX / MPH Recovered [2, 34]: 13.4% and 12.5% | mg NTX / MPH Recovered [2, 34]: 2.68 mg and 2.5 mg | % NTX / MPH Recovered [2, 35]: 5.2% and 6.5% | NTX / MPH [2, 35]: 0.05 mg/mL and 0.06 mg/mL | mg NTX / MPH Recovered [2, 35]: 1.04 mg and 1.3 mg | % NTX / MPH Recovered [2, 36]: 5.6% and 8.6% | NTX / MPH [2, 36]: 0.06 mg/mL and 0.09 mg/mL | mg NTX / MPH Recovered [2, 36]: 1.12 mg and 1.72 mg | NTX / MPH ([2]; Nail Polish Remover 50 mL, 20 mg each drug combined, listed as NTX, HCl): 0.14 mg/mL and 0.15 mg/mL | % NTX / MPH Recovered [2, 37]: 13.8% and 15.4% | mg NTX / MPH Recovered [2, 37]: 2.76 mg and 3.08 mg
